Measured values from ChEMBL document CHEMBL3039007, “Structure-based identification of OATP1B1/3 inhibitors” (Mol Pharmacol, 2013).

Columns and labels:
[1] = target: T1, Solute carrier organic anion transporter family member 1B1 (Homo sapiens, UniProt Q9Y6L6); conditions: chinese hamster, cho, 10 µM
T1 sequence (Q9Y6L6 whole entry): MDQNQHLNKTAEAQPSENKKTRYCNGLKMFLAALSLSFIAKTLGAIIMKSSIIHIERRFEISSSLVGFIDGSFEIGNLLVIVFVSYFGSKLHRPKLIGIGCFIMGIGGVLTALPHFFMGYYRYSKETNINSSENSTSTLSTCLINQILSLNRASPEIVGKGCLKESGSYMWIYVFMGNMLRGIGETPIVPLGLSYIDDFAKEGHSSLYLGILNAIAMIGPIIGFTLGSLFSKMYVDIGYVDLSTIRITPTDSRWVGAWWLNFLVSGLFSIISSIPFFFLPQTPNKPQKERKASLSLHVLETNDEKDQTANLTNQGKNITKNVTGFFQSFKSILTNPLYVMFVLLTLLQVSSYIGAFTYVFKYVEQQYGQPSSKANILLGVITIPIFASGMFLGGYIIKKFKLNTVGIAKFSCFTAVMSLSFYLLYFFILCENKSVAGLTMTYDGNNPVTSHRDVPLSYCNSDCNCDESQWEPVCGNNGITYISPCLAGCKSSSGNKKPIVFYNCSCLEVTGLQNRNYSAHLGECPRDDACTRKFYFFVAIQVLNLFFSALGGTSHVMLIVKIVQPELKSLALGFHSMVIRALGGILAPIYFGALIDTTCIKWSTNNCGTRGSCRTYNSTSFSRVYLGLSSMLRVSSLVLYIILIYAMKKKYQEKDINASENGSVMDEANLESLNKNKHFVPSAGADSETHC

[2] = target: T2, Solute carrier organic anion transporter family member 1B3 (Homo sapiens, UniProt Q9NPD5); conditions: chinese hamster, cho, 10 µM
T2 sequence (Q9NPD5 whole entry): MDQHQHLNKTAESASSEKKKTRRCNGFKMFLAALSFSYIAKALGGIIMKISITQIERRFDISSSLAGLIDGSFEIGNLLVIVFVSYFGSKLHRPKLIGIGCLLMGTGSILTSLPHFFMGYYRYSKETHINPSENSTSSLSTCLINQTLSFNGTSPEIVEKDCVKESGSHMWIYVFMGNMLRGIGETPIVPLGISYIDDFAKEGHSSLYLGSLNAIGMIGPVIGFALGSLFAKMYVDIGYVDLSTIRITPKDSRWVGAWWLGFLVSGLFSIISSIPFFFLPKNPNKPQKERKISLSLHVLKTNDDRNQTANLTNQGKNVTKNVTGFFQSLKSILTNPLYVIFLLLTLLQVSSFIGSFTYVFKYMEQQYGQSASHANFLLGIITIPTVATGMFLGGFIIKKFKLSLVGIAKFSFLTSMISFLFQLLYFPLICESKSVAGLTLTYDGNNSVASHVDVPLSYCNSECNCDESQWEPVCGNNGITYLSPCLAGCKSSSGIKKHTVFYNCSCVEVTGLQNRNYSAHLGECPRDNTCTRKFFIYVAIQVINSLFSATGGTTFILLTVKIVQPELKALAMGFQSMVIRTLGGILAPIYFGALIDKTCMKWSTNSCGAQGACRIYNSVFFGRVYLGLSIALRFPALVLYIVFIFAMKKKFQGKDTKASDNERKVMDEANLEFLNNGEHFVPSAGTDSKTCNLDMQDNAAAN

Compound: C=C1[C@@H]([C@@]2(C)C=CC(=O)C(C)(C)[C@@H]2CC(=O)OC)CC[C@@]2(C)[C@H](c3ccoc3)OC(=O)[C@H]3O[C@]132 [ANDIROBIN]
- residual activity [1]: 103.8%
- residual activity [2]: 98.71%

Compound: C=C1CC[C@@H]2[C@](C)(CO)[C@H](O)CC[C@@]2(C)[C@@H]1C/C=C1/C(=O)OC[C@H]1O [ANDROGRAPHOLIDE]
- residual activity [1]: 80.16%
- residual activity [2]: 84.72%

Compound: C[C@]12C=CC(=O)C=C1CC[C@@H]1[C@@H]2CC[C@]2(C)C(=O)CC[C@@H]12 [ANDROSTENEDONE]
- residual activity [1]: 128.1%
- residual activity [2]: 104%

Compound: CC(=O)O[C@@H]1CC[C@@]2(C)[C@@H](CC[C@@H]3[C@@H]2CC[C@]2(C)C(=O)CC[C@@H]32)C1 [ANDROSTERONE ACETATE]
- residual activity [1]: 76.88%
- residual activity [2]: 100.8%

Compound: C/C=C/c1ccc(OC)cc1 [ANETHOLE]
- residual activity [1]: 89.5%
- residual activity [2]: 124.1%

Compound: COc1ccc([C@@H](C)C(=O)c2ccc(O)cc2O)cc1 [ANGOLENSIN (R)]
- residual activity [1]: 114.1%
- residual activity [2]: 126.8%

Compound: COc1ccc2c(=O)c(CC(=O)O)coc2c1 [ANHYDROBRAZILIC ACID]
- residual activity [1]: 56.09%
- residual activity [2]: 76.12%

Compound: COc1ccc(C2C(=O)c3ccccc3C2=O)cc1 [ANISINDIONE]
- residual activity [1]: 74.63%
- residual activity [2]: 75.63%

Compound: COc1ccc(C[C@H]2NC[C@H](O)[C@H]2OC(C)=O)cc1 [ANISOMYCIN]
- residual activity [1]: 81.33%
- residual activity [2]: 81.11%

Compound: O=C(O)c1c2ccccc2cc2ccccc12 [ANTHRACENE-9-CARBOXYLIC ACID]
- residual activity [1]: 95.94%
- residual activity [2]: 87.88%

Compound: O=C1c2c(O)cccc2Cc2cccc(O)c21 [ANTHRALIN]
- residual activity [1]: 86.38%
- residual activity [2]: 90.63%

Compound: O=C1c2ccccc2C(=O)c2ccccc21 [ANTHRAQUINONE]
- residual activity [1]: 96.98%
- residual activity [2]: 78.8%

Compound: COc1cc(O)cc(OC)c1OC [ANTIAROL]
- residual activity [1]: 95.16%
- residual activity [2]: 113%

Compound: Cc1cc(=O)n(-c2ccccc2)n1C [ANTIPYRINE]
- residual activity [1]: 79.71%
- residual activity [2]: 82.49%

Compound: O=C(O)C1CC([C@@H]2CCCCN2)CN2CCCCC12 (stereo partly drawn) [APHYLLIC ACID]
- residual activity [1]: 83.2%
- residual activity [2]: 100.7%

Compound: CC(=O)Oc1ccc(-c2cc(=O)c3c(OC(C)=O)cc(OC(C)=O)cc3o2)cc1 [APIGENIN TRIACETATE]
- residual activity [1]: 92.99%
- residual activity [2]: 94.69%

Compound: O=c1cc(-c2ccc(O)cc2)oc2cc(O)cc(O)c12 [APIGENIN]
- residual activity [1]: 84.2%
- residual activity [2]: 134.2%

Compound: O=c1cc(-c2ccc(O)cc2)oc2cc(O[C@@H]3O[C@H](CO)[C@@H](O)[C@H](O)[C@H]3O)cc(O)c12 [APIGETRIN]
- residual activity [1]: 204.4%
- residual activity [2]: 134.6%

Compound: O=c1cc(-c2ccc(O)cc2)oc2cc(O[C@@H]3O[C@H](CO)[C@@H](O)[C@H](O)[C@H]3O[C@@H]3OC[C@](O)(CO)[C@H]3O)cc(O)c12 [APIIN]
- residual activity [1]: 69.17%
- residual activity [2]: 141.5%

Compound: C=CCc1cc(OC)c2c(c1OC)OCO2 [APIOL]
- residual activity [1]: 213.1%
- residual activity [2]: 107.2%

Compound: OC[C@H]1O[C@@H](Oc2ccc(O)cc2)[C@H](O)[C@@H](O)[C@@H]1O [ARBUTIN]
- residual activity [1]: 103.7%
- residual activity [2]: 113.4%

Compound: N=C(N)NCCCCNC(=N)N.O=S(=O)(O)O [ARCAINE SULFATE]
- residual activity [1]: 78.37%
- residual activity [2]: 96.72%

Compound: Br.COC(=O)C1=CCCN(C)C1 [ARECOLINE HYDROBROMIDE]
- residual activity [1]: 112.6%
- residual activity [2]: 103.7%

Compound: COc1cccc2c1cc([N+](=O)[O-])c1c(C(=O)O)cc3c(c12)OCO3 [ARISTOLOCHIC ACID]
- residual activity [1]: 76.91%
- residual activity [2]: 107.6%

Compound: CCCCCC(=O)Cc1cc(O)cc(O)c1C(=O)Oc1cc(CC(=O)CCCCC)c(C(=O)O)c(OC)c1 [ARTHONIOIC ACID]
- residual activity [1]: 52.3%
- residual activity [2]: 96.29%

Compound: c1ccc2c(Cc3c[nH]c4ccccc34)c[nH]c2c1 [ARUNDINE]
- residual activity [1]: 101.6%
- residual activity [2]: 110.1%

Compound: c1cc2c(cc1[C@H]1OC[C@H]3[C@@H]1CO[C@H]3c1ccc3c(c1)OCO3)OCO2 [ASARININ]
- residual activity [1]: 107.7%
- residual activity [2]: 116.8%

Compound: O=C1O[C@H]([C@@H](O)CO)C(O)=C1O [ASCORBIC ACID]
- residual activity [1]: 84.23%
- residual activity [2]: 96.05%

Compound: CC1=C(/C=C/C(C)=C/C=C/C(C)=C/C=C/C=C(C)/C=C/C=C(C)/C=C/C2=C(C)C(=O)[C@@H](O)CC2(C)C)C(C)(C)C[C@H](O)C1=O [ASTAXANTHIN]
- residual activity [1]: 95.25%
- residual activity [2]: 87.19%

Compound: COc1ccc(CCN2CCC(Nc3nc4ccccc4n3Cc3ccc(F)cc3)CC2)cc1 [ASTEMIZOLE]
- residual activity [1]: 127.5%
- residual activity [2]: 97.68%

Compound: CC(C)NCC(O)COc1ccc(CC(N)=O)cc1 (stereo not drawn) [ATENOLOL]
- residual activity [1]: 78.26%
- residual activity [2]: 93.81%

Compound: O=C1c2ccccc2C(=O)c2c1ccc(O)c2O [ATHRAQUINONES A]
- residual activity [1]: 84.81%
- residual activity [2]: 93.11%

Compound: O=C1C(O)=C([C@H]2CC[C@H](c3ccc(Cl)cc3)CC2)C(=O)c2ccccc21 [ATOVAQUONE]
- residual activity [1]: 89.04%
- residual activity [2]: 81.94%

Compound: COC(=O)c1c(C)cc(OC(=O)c2c(C)cc(O)c(C=O)c2O)c(C)c1O [ATRANORIN]
- residual activity [1]: 122.9%
- residual activity [2]: 109.7%

Compound: CCNc1nc(Cl)nc(NC(C)C)n1 [ATRAZINE]
- residual activity [1]: 133.8%
- residual activity [2]: 96.21%

Compound: CC1=CC(=O)C2=C(C)C[C@H](O)[C@@H]3[C@H](OC(=O)[C@H]3C)[C@H]12 [AUSTRICINE]
- residual activity [1]: 102.6%
- residual activity [2]: 86.81%

Compound: COc1ccc(C(=O)CC(=O)c2ccc(C(C)(C)C)cc2)cc1 [AVOBENZONE]
- residual activity [1]: 124%
- residual activity [2]: 103%

Compound: C#CCCCCCCCCCCCC(O)CC(O)COC(C)=O (stereo not drawn) [AVOCADYNE ACETATE]
- residual activity [1]: 144.6%
- residual activity [2]: 109.9%

Compound: C#CCCCCCCCCCCCC(O)CC(O)CO (stereo not drawn) [AVOCADYNE]
- residual activity [1]: 96.1%
- residual activity [2]: 124.3%

Compound: C#CCCCCCCCCCCCC(=O)CC(O)COC(C)=O (stereo not drawn) [AVOCADYNONE ACETATE]
- residual activity [1]: 124.8%
- residual activity [2]: 100.5%

Compound: C=CCCCCCCCCCCCC(O)CC(O)COC(C)=O (stereo not drawn) [AVOCATIN A]
- residual activity [1]: 125.1%
- residual activity [2]: 99.6%

Compound: Nc1ncn([C@@H]2O[C@H](CO)[C@@H](O)[C@H]2O)c(=O)n1 [AZACITIDINE]
- residual activity [1]: 108.4%
- residual activity [2]: 96.87%

Compound: C/C=C(\C)C(=O)O[C@H]1C[C@@H](OC(C)=O)[C@@]2(C(=O)OC)CO[C@H]3[C@@H](O)[C@@](C)([C@]45O[C@@]4(C)[C@@H]4C[C@H]5O[C@@H]5OC=C[C@@]54O)[C@H]4[C@]1(CO[C@]4(O)C(=O)OC)[C@@H]32 [AZADIRACHTIN A]
- residual activity [1]: 51.12%
- residual activity [2]: 74.42%

Compound: O=C(CCCN1CCN(c2ccccn2)CC1)c1ccc(F)cc1 [AZAPERONE]
- residual activity [1]: 88.32%
- residual activity [2]: 108.2%

Compound: [N-]=[N+]=CC(=O)OC[C@H](N)C(=O)O [AZASERINE]
- residual activity [1]: 100.4%
- residual activity [2]: 107.6%

Compound: Cn1cnc([N+](=O)[O-])c1Sc1ncnc2nc[nH]c12 [AZATHIOPRINE]
- residual activity [1]: 128.4%
- residual activity [2]: 107.3%

Compound: O=C(O)CCCCCCCC(=O)O [AZELAIC ACID]
- residual activity [1]: 100.4%
- residual activity [2]: 107.2%

Compound: CN1CCCC(n2nc(Cc3ccc(Cl)cc3)c3ccccc3c2=O)CC1.Cl (stereo not drawn) [AZELASTINE HYDROCHLORIDE]
- residual activity [1]: 43.45%
- residual activity [2]: 134.9%

Compound: CC1(C)S[C@@H]2[C@H](NC(=O)[C@H](NC(=O)N3CCNC3=O)c3ccccc3)C(=O)N2[C@H]1C(=O)[O-].[Na+] [AZLOCILLIN SODIUM]
- residual activity [1]: 96.91%
- residual activity [2]: 85.12%
